Measurements from publication PMC9386018, “A lymphatic-absorbed multi-targeted kinase inhibitor for myelofibrosis therapy” (Nature Communications, 2022).
“And” between values parts separate entries of the source, which are not always exact repeats. Equal values may be shown once.

Tests used:
[1] = target: Target kinase isoforms (PI3K, mTOR, RAF, MEK) (Homo sapiens, UniProt P42336); test: Target kinase isoforms 10-point IC50 determination (Supplementary Fig. 7); assay type: biochemical; conditions: PI3K alpha
Description: (§1) The average percent kinase inhibition from replicate data was ranked low to high, converted to a compatible identifier format, then input into Coral Human Kinome Visualization software for presentation analysis. […] Scaling of evolutionary distance for PI kinases is only relative and is based on literature analysis[62],[63]. Average percent kinome inhibition values from replicate data are supplied in Source Data file. […] Corrected data was normalized to vehicle treated control values, and dose response percent kinase activity was analyzed by non-linear regression for determination of IC50 values.

[2] = target: Target kinase isoforms (PI3K, mTOR, RAF, MEK) (Homo sapiens, UniProt P48736); test: as above; assay type: biochemical; conditions: PI3K gamma
Description: as §1

[3] = target: Target kinase isoforms (PI3K, mTOR, RAF, MEK) (Homo sapiens, UniProt P42345); test: as above; assay type: biochemical; conditions: mTOR
Description: as §1

[4] = target: Target kinase isoforms (PI3K, mTOR, RAF, MEK) (Homo sapiens, UniProt P42338); test: as above; assay type: biochemical; conditions: PI3K beta
Description: as §1

[5] = Pharmacokinetic analysis of plasma after intravenous and oral dosing; conditions: for concentration at 0.5 h / concentration at 1 h / concentration at 2 h / concentration at 4 h / concentration at 7 h / concentration at 24 h / half-life: female, CD-1, mouse
[6] = concentration 0.495 nM, 0.000495 µM
[7] = concentration 41.2 nM, 0.0412 µM
[8] = concentration 1.52 nM, 0.00152 µM
[9] = concentration 4.57 nM, 0.00457 µM

Target kinase isoforms (PI3K, mTOR, RAF, MEK) (Homo sapiens, UniProt P42336), sequence (P42336 whole entry, canonical isoform): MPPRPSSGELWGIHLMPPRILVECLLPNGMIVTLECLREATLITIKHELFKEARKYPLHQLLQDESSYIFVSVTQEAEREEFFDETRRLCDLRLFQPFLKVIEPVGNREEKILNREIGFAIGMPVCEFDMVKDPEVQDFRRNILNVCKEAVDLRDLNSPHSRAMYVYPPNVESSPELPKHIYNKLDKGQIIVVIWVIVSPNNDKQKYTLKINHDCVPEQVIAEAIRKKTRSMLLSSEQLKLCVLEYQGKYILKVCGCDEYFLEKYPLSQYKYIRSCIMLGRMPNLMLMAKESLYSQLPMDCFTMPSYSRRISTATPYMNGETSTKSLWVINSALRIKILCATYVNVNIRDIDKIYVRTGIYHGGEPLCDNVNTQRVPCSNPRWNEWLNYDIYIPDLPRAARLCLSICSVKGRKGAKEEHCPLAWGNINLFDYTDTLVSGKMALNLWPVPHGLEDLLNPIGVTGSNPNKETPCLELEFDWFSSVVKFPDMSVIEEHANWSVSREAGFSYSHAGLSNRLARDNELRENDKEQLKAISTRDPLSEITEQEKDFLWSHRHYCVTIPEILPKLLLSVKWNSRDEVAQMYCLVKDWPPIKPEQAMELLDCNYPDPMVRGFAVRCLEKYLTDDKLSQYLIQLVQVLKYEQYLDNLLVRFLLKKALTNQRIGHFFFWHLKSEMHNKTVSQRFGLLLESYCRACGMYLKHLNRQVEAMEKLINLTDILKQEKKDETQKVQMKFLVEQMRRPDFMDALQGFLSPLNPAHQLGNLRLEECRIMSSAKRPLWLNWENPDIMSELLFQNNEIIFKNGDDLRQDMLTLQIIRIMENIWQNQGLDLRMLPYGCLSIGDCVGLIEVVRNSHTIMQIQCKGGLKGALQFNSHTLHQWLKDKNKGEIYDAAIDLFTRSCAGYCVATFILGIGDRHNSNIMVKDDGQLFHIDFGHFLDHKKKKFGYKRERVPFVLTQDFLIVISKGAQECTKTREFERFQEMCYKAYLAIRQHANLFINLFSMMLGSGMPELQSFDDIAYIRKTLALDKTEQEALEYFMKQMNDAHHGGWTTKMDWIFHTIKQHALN
Target kinase isoforms (PI3K, mTOR, RAF, MEK) (Homo sapiens, UniProt P48736), sequence (P48736 whole entry, canonical isoform): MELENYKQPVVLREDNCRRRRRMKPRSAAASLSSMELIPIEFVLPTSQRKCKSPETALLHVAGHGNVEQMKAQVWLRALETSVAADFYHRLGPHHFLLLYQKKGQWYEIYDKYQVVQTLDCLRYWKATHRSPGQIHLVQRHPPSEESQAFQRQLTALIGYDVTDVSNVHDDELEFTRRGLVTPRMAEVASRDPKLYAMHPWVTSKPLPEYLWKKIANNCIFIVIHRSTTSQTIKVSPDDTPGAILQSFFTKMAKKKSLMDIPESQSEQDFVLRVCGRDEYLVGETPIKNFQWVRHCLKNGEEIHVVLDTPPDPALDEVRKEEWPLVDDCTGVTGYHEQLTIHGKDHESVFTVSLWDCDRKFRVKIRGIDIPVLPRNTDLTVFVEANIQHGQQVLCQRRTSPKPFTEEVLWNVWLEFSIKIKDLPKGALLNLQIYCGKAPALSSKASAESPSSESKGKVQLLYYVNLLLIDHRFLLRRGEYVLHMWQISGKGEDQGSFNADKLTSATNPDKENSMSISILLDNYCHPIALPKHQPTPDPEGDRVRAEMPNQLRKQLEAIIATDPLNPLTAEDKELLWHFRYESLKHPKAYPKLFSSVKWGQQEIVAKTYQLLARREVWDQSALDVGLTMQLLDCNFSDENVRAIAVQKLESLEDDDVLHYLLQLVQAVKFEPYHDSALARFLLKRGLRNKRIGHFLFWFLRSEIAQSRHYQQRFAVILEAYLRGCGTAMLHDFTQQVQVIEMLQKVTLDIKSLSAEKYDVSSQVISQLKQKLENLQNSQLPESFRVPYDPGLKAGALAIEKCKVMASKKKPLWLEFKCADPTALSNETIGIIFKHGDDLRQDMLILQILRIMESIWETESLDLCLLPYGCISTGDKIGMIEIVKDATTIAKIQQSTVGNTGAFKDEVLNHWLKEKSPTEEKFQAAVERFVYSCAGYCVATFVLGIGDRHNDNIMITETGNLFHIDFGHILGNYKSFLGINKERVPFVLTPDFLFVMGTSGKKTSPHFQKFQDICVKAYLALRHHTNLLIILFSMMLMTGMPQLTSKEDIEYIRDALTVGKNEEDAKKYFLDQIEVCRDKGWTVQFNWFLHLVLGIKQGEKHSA
Target kinase isoforms (PI3K, mTOR, RAF, MEK) (Homo sapiens, UniProt P42338), sequence (P42338 whole entry, canonical isoform): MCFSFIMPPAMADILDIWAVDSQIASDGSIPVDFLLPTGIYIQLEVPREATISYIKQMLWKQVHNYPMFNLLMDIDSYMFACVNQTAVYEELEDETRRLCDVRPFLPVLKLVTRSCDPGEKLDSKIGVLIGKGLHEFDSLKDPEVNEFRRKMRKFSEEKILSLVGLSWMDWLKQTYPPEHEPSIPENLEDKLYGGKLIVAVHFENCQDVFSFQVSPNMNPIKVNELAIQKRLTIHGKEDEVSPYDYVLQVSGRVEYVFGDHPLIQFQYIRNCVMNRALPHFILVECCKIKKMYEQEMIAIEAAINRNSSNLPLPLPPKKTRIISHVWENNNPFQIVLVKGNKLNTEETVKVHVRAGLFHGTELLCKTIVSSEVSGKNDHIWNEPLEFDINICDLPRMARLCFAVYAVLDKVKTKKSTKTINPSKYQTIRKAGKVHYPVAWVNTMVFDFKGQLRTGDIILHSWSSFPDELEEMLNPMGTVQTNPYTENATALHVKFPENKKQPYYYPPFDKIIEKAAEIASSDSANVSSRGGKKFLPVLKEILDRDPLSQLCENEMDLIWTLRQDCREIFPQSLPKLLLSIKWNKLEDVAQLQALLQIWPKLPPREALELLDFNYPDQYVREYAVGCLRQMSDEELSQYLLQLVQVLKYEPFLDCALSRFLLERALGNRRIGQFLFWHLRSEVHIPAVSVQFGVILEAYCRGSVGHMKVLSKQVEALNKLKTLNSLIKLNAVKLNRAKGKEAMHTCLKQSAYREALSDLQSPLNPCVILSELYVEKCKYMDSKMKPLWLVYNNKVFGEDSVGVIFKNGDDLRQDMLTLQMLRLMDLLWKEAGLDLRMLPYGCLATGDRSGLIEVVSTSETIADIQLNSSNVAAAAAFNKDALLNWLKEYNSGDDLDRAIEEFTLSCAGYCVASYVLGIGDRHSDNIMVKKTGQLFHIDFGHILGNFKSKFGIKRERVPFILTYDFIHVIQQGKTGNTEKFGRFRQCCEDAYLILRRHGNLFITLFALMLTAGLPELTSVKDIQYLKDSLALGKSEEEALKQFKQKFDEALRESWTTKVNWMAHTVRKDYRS

SMILES: O=C(NOCCOCCOCCOCCC(=O)N1CCN(c2cnc3ccc(-c4cnc(Cl)c(NS(=O)(=O)c5ccc(F)cc5)c4)cc3n2)CC1)c1ccc(F)c(F)c1Nc1ccc(I)cc1F [LP-182, N-(2-(2-(2-(3-(4-(7-(6-chloro-5-((4-fluorophenyl)sulfonamido)pyridin-3-yl)quinoxalin-2-yl)piperazin-1-yl)-3-oxopropoxy)ethoxy)ethoxy)ethoxy)-3,4-difluoro-2-((2-fluoro-4-iodophenyl)amino)benzamide]
- Kinase Activity (%) PI3K alpha ([1]; concentration 0.0188 nM, 18.8 pM): 97% and 99% and 100% and 98% and 76% and 90%
- Kinase Activity (%) PI3K alpha ([1]; concentration 0.0564 nM, 56.4 pM): 93% and 98% and 99% and 108% and 106% and 80% and 82% and 89%
- Kinase Activity (%) PI3K alpha [1, 6]: 79%
- activity at 0.00457 µM ([1]; concentration 4.57 nM): 27%
- Kinase Activity (%) PI3K alpha [1, 7]: 4% and 6% and 8% and 9% and 5% and 10% and 7%
- Kinase Activity (%) PI3K alpha ([1]; concentration 123 nM, 0.123 µM): 1% and 3% and 4% and 2% and 6%
- Kinase Activity (%) PI3K alpha ([1]; concentration 1110 nM, 1.11 µM): 0% and 1%
- Kinase Activity (%) PI3K alpha ([1]; concentration 3330 nM, 3.33 µM): 1% and 0% and 2%
- Kinase Activity (%) PI3K alpha ([1]; concentration 10000 nM, 10 µM): 5% and 0% and 3% and 1%
- activity at 0.123 µM ([2]; concentration 123 nM): 20%
- activity at […] ([2]; concentration 370 nM): 6%
- Kinase Activity (%) PI3K gamma ([2]; concentration 1110 nM, 1.11 µM): 1% and 3% and 4% and 0%
- Kinase Activity (%) PI3K gamma ([2]; concentration 3330 nM, 3.33 µM): 0% and 1%
- Kinase Activity (%) PI3K gamma ([2]; concentration 10000 nM, 10 µM): 4% and 0% and 2%
- activity at 0.000495 µM ([3]; concentration 0.495 nM): 95%
- Kinase Activity (%) mTOR [3, 6]: 99% and 98% and 101% and 94% and 96%
- activity at 0.00152 µM ([3]; concentration 1.52 nM): 97%
- Kinase Activity (%) mTOR [3, 8]: 99% and 100% and 94%
- activity at 0.00457 µM ([3]; concentration 4.57 nM): 91%
- Kinase Activity (%) mTOR [3, 9]: 92% and 94% and 87% and 88%
- activity at 0.0412 µM ([3]; concentration 41.2 nM): 52%
- Kinase Activity (%) mTOR [3, 7]: 63% and 57% and 47%
- activity at 0.123 µM ([3]; concentration 123 nM): 29%
- Kinase Activity (%) mTOR ([3]; concentration 123 nM, 0.123 µM): 30% and 32% and 31%
- activity at […] ([3]; concentration 370 nM): 13%
- Kinase Activity (%) mTOR ([3]; concentration 1110 nM, 1.11 µM): 4% and 3% and 5% and 1% and 2%
- Kinase Activity (%) mTOR ([3]; concentration 3330 nM, 3.33 µM): 0% and -1% and -2%
- Kinase Activity (%) mTOR ([3]; concentration 10000 nM, 10 µM): 2% and -1% and 1%
- Kinase Activity (%) PI3K beta [4, 6]: 105% and 85% and 110% and 102% and 121% and 113%
- Kinase Activity (%) PI3K beta [4, 8]: 95% and 99% and 101% and 103% and 119% and 118%
- Kinase Activity (%) PI3K beta [4, 9]: 89% and 94% and 105% and 106% and 117% and 114%
- Kinase Activity (%) PI3K beta [4, 7]: 80% and 74% and 95% and 101% and 98% and 107%
- Kinase Activity (%) PI3K beta ([4]; concentration 123 nM, 0.123 µM): 63% and 51% and 71% and 72% and 84%
- activity at 3.33 µM ([4]; concentration 3330 nM): 16%
- Kinase Activity (%) PI3K beta ([4]; concentration 3330 nM, 3.33 µM): 24% and 12% and 13% and 14%
- Kinase Activity (%) PI3K beta ([4]; concentration 10000 nM, 10 µM): 13% and 5% and 3%
- Concentration ([5]; Supplementary Figure 6a, i.v., Time 0.167 h, individual replicates): 11100 ng/mL and 8270 ng/mL and 5220 ng/mL
- Concentration ([5]; Supplementary Figure 6a, i.v., Time 0.5 h, individual replicates): 807 ng/mL and 646 ng/mL
- Concentration ([5]; Supplementary Figure 6a, i.v., Time 1 h, individual replicates): 451 ng/mL and 857 ng/mL
- Concentration ([5]; Supplementary Figure 6a, i.v., Time 2 h, individual replicates): 275 ng/mL and 179 ng/mL
- Concentration ([5]; Supplementary Figure 6a, i.v., Time 4 h, individual replicates): 141 ng/mL and 75.9 ng/mL
- Concentration ([5]; Supplementary Figure 6a, i.v., Time 7 h, individual replicates): 51.4 ng/mL and 34.3 ng/mL
- Concentration ([5]; Supplementary Figure 6a, i.v., Time 16 h, individual replicates): 30.6 ng/mL and 29.3 ng/mL and 5.58 ng/mL
- Concentration ([5]; Supplementary Figure 6a, i.v., Time 24 h, individual replicates): 7.68 ng/mL and 8.28 ng/mL
- Concentration ([5]; Supplementary Figure 6a, p.o., Time 0.167 h, individual replicates): 731 ng/mL and 1660 ng/mL and 900 ng/mL
- Concentration ([5]; Supplementary Figure 6a, p.o., Time 0.5 h, individual replicates): 2150 ng/mL and 2630 ng/mL
- Concentration ([5]; Supplementary Figure 6a, p.o., Time 1 h, individual replicates): 1580 ng/mL and 1950 ng/mL
- Concentration ([5]; Supplementary Figure 6a, p.o., Time 2 h, individual replicates): 424 ng/mL and 145 ng/mL and 74.1 ng/mL
- Concentration ([5]; Supplementary Figure 6a, p.o., Time 4 h, individual replicates): 146 ng/mL and 522 ng/mL and 339 ng/mL
- Concentration ([5]; Supplementary Figure 6a, p.o., Time 7 h, individual replicates): 331 ng/mL and 97.6 ng/mL and 1560 ng/mL
- Concentration ([5]; Supplementary Figure 6a, p.o., Time 16 h, individual replicates): 79.2 ng/mL and 205 ng/mL and 265 ng/mL
- Concentration ([5]; Supplementary Figure 6a, p.o., Time 24 h, individual replicates): 401 ng/mL and 114 ng/mL and 295 ng/mL
- concentration at 0.5 h ([5]; plasma, iv, 15 mg kg^−1, Concentration (ng/mL), mice, single i.v. LP-182 15 mg kg^−1, 0.5 h, analyte = label, individual animals): 1180 ng/mL
- concentration at 1 h ([5]; plasma, iv, 15 mg kg^−1, Concentration (ng/mL), mice, single i.v. LP-182 15 mg kg^−1, 1 h, analyte = label, individual animals): 524 ng/mL
- concentration at 2 h ([5]; plasma, iv, 15 mg kg^−1, Concentration (ng/mL), mice, single i.v. LP-182 15 mg kg^−1, 2 h, analyte = label, individual animals): 275 ng/mL
- concentration at 4 h ([5]; plasma, iv, 15 mg kg^−1, Concentration (ng/mL), mice, single i.v. LP-182 15 mg kg^−1, 4 h, analyte = label, individual animals): 83.2 ng/mL
- concentration at 7 h ([5]; plasma, iv, 15 mg kg^−1, Concentration (ng/mL), mice, single i.v. LP-182 15 mg kg^−1, 7 h, analyte = label, individual animals): 29.2 ng/mL
- concentration at 24 h ([5]; plasma, iv, 15 mg kg^−1, Concentration (ng/mL), mice, single i.v. LP-182 15 mg kg^−1, 24 h, analyte = label, individual animals): 9.67 ng/mL
- concentration at 0.5 h ([5]; plasma, iv, 15 mg kg^−1, Concentration, Supplementary Figure 6a, Time 0.5 h, individual replicates): 1180 ng/mL
- concentration at 1 h ([5]; plasma, iv, 15 mg kg^−1, Concentration, Supplementary Figure 6a, Time 1 h, individual replicates): 524 ng/mL
- concentration at 2 h ([5]; plasma, iv, 15 mg kg^−1, Concentration, Supplementary Figure 6a, Time 2 h, individual replicates): 275 ng/mL
- concentration at 4 h ([5]; plasma, iv, 15 mg kg^−1, Concentration, Supplementary Figure 6a, Time 4 h, individual replicates): 83.2 ng/mL
- concentration at 7 h ([5]; plasma, iv, 15 mg kg^−1, Concentration, Supplementary Figure 6a, Time 7 h, individual replicates): 29.2 ng/mL
- concentration at 24 h ([5]; plasma, iv, 15 mg kg^−1, Concentration, Supplementary Figure 6a, Time 24 h, individual replicates): 9.67 ng/mL
- half-life ([5]; plasma, iv, 15 mg/kg): 474 min
- concentration at 0.5 h ([5]; plasma, po, 400 mg kg^−1, Concentration (ng/mL), mice, single p.o. LP-182 400 mg kg^−1, 0.5 h, analyte = label, individual animals): 2530 ng/mL
- concentration at 1 h ([5]; plasma, po, 400 mg kg^−1, Concentration (ng/mL), mice, single p.o. LP-182 400 mg kg^−1, 1 h, analyte = label, individual animals): 1240 ng/mL
- concentration at 0.5 h ([5]; plasma, po, 400 mg kg^−1, Concentration, Supplementary Figure 6a, Time 0.5 h, individual replicates): 2530 ng/mL
- concentration at 1 h ([5]; plasma, po, 400 mg kg^−1, Concentration, Supplementary Figure 6a, Time 1 h, individual replicates): 1240 ng/mL
- half-life ([5]; plasma, po, 400 mg/kg): 762 min
- plasma level maintained over 24 h ([5]; mice, after oral LP-182 400 mg kg^−1, analyte = label): ~ 300 ng mL^-1
- Concentration ([5]; mice, plasma, single i.v. LP-182 15 mg kg^−1, 0.167 h, analyte = label, individual animals): 11100 ng/mL and 8270 ng/mL and 5220 ng/mL
- Concentration ([5]; mice, plasma, single i.v. LP-182 15 mg kg^−1, 0.5 h, analyte = label, individual animals): 807 ng/mL and 646 ng/mL
- Concentration ([5]; mice, plasma, single i.v. LP-182 15 mg kg^−1, 1 h, analyte = label, individual animals): 451 ng/mL and 857 ng/mL
- Concentration ([5]; mice, plasma, single i.v. LP-182 15 mg kg^−1, 2 h, analyte = label, individual animals): 275 ng/mL and 179 ng/mL
- Concentration ([5]; mice, plasma, single i.v. LP-182 15 mg kg^−1, 4 h, analyte = label, individual animals): 141 ng/mL and 75.9 ng/mL
- Concentration ([5]; mice, plasma, single i.v. LP-182 15 mg kg^−1, 7 h, analyte = label, individual animals): 51.4 ng/mL and 34.3 ng/mL
- Concentration ([5]; mice, plasma, single i.v. LP-182 15 mg kg^−1, 16 h, analyte = label, individual animals): 30.6 ng/mL and 29.3 ng/mL and 5.58 ng/mL
- Concentration ([5]; mice, plasma, single i.v. LP-182 15 mg kg^−1, 24 h, analyte = label, individual animals): 7.68 ng/mL and 8.28 ng/mL
- Concentration ([5]; mice, plasma, single p.o. LP-182 400 mg kg^−1, 0.167 h, analyte = label, individual animals): 731 ng/mL and 1660 ng/mL and 900 ng/mL
- Concentration ([5]; mice, plasma, single p.o. LP-182 400 mg kg^−1, 0.5 h, analyte = label, individual animals): 2150 ng/mL and 2630 ng/mL
- Concentration ([5]; mice, plasma, single p.o. LP-182 400 mg kg^−1, 1 h, analyte = label, individual animals): 1580 ng/mL and 1950 ng/mL
- Concentration ([5]; mice, plasma, single p.o. LP-182 400 mg kg^−1, 2 h, analyte = label, individual animals): 424 ng/mL and 145 ng/mL and 74.1 ng/mL
- Concentration ([5]; mice, plasma, single p.o. LP-182 400 mg kg^−1, 4 h, analyte = label, individual animals): 146 ng/mL and 522 ng/mL and 339 ng/mL
- Concentration ([5]; mice, plasma, single p.o. LP-182 400 mg kg^−1, 7 h, analyte = label, individual animals): 331 ng/mL and 97.6 ng/mL and 1560 ng/mL
- Concentration ([5]; mice, plasma, single p.o. LP-182 400 mg kg^−1, 16 h, analyte = label, individual animals): 79.2 ng/mL and 205 ng/mL and 265 ng/mL
- Concentration ([5]; mice, plasma, single p.o. LP-182 400 mg kg^−1, 24 h, analyte = label, individual animals): 401 ng/mL and 114 ng/mL and 295 ng/mL
